In PMC9311865, “Covalent Allosteric Inhibitors of Akt Generated Using a Click Fragment Approach” (Chemmedchem, 2022):

Legend:
wild-type Akt1 [1] = biological target: T1, wild-type Akt1 (Homo sapiens, UniProt P31749); set-up: method as in earlier work; conditions: ref 6a; cited from earlier work
T1 construct: made in house

Akt2 = biological target: T2, Akt2 (Homo sapiens, UniProt P31751); test: HTRF KinEASE assay, IC50 against Akt2; type: biochemical; conditions: wild-type Akt2; mean ± SD, n=3
T2 construct: purchased ProQinase
Excerpt: (§1) The homogeneous time‐resolved fluorescence (HTRF®) KinEASE™ assay by Cisbio was used to determine the half‐maximal inhibitory concentration (IC50) values of the synthesised compounds against Akt1, Akt2 and Akt3 (Table 1).[26]
(§2) The HTRF® KinEASE™ assay (Cisbio) was used to determine the IC 50 values of the synthesised
(§3) al. (Akt2 and Akt3).1,5 The three wild-type Akt isoforms used were acquired from ProQinase.

Akt1 [2] = biological target: T3, Akt1 (Homo sapiens, UniProt P31749); test: HTRF KinEASE assay, IC50 against Akt1; conditions: Akt1; repeated in Table 2 for comparison; mean ± SD, n=3
Excerpt: as §1, §2, §3

T47D cells = test: CellTiter-Glo Luminescent Cell Viability Assay, T47D; type: cell-based; conditions: Homo sapiens, breast cancer cell line, mean ± SD, n=3
BT-474 cells = test: CellTiter-Glo Luminescent Cell Viability Assay, BT-474; type: cell-based; conditions: Homo sapiens, BT-474; breast cancer cell line; mean ± SD, n=3; read-out: EC50 BT‐474
AN3CA cells = test: CellTiter-Glo Luminescent Cell Viability Assay, AN3CA; type: cell-based; conditions: Homo sapiens, AN3-CA; endometrium cancer cell line; mean ± SD, n=3; read-out: EC50 AN3CA
ZR-75-1 cells = test: CellTiter-Glo Luminescent Cell Viability Assay, ZR-75-1; type: cell-based; conditions: Homo sapiens, ZR-75-1; breast cancer cell line; mean ± SD, n=3; read-out: EC50 ZR‐75‐1
MCF-7 cells = test: CellTiter-Glo Luminescent Cell Viability Assay, MCF-7; type: cell-based; conditions: Homo sapiens, MCF7; breast cancer cell line; mean ± SD, n=3; read-out: EC50 MCF‐7
wild-type Akt1 [3] = biological target: T1, wild-type Akt1; test: LC-MS identification of covalent binders after co-incubation with Akt1; type: binding; conditions: co-incubation with Akt1, Figure S1
Excerpt: 2. Evaluation results … 4
4. Molecular Modelling … 57
indicated covalent binding.

Akt3 = Akt3 (Homo sapiens, UniProt Q9Y243); test: HTRF KinEASE assay, IC50 against Akt3
Excerpt: as §1, §2, §3

KU-19-19 cells = test: CellTiter-Glo Luminescent Cell Viability Assay, KU-19-19; type: cell-based; conditions: Homo sapiens, bladder cancer cell line, Akt1 E17K/E49K, mean ± SD, n=3
Method: The potential in vitro antiproliferative activity of the synthesised target compounds was investigated against a number of cancer cell lines by the CellTiter‐Glo® Luminescent Cell Viability Assay (from Promega Corporation, USA, catalogue number: G7570). The half‐maximal effective concentrations (EC50) of these compounds were determined against the AN3‐CA, BT‐474, KU‐19‐19, MCF‐7, T‐47D and ZR‐75‐1 cell lines originating from various tissues, i. e., breast, endometrium and bladder (Table S1). […]
The CellTiter-Glo® Luminescent Cell Viability Assay from Promega was used for the cellular assays, performed as explained by Weisner et al.7,8 Information on the cancer cell lines are given in Table S1, the control compounds used in Figure S3 and the results in Table S2.
Table S1. The cell lines used for the cellular assays, including what cancer type they are predominantly found in, and where the cell lines were acquired form.
Cell line Cancer type Acquired from AN3CA Endometrium ATCC (provided by Prof. Jan G. Hengstler at Leibniz-Institut für Arbeitsforschung Dortmund)
KU-19-19 Bladder Deutsche Sammlung von Mikroorganismen und Zellkulturen […]
BT-474 CLS Cell Lines Service (provided by Prof. Jan G. Hengstler at […] Leibniz-Institut für Arbeitsforschung Dortmund)

Akt1 [4] = biological target: T3, Akt1; test: Kinetic analysis with HTRF KinEASE (time-dependent IC50), kinetic parameters of inactivation; type: biochemical; set-up: purchased ProQinase; conditions: mean ± SD, n=3
Excerpt: The kinetic parameters of inactivation, namely the inhibition constant (K I) and the rate constant of enzyme inactivation (k inact), are therefore preferentially used to describe irreversible inhibitors.[28] K I is defined as the concentration of inhibitor required for half of the maximum potential rate of covalent bond formation, while k inact is defined as the maximum potential rate of covalent bond formation.[29] The ratio of k inact over K I, k inact/K I, accounts for both the potency of the inhibitor (K I) and the maximum potential rate of covalent bond formation (k inact) and thus represents the second‐order rate constant describing the efficiency of covalent complex formation.[29] Using a protocol published by Krippendorff et al., K I and k inact can be directly estimated from time‐dependent IC50 determinations by kinetic analysis with HTRF® KinEASE™.[28]
Using a protocol published by Krippendorff et al., KI, kinact and kinact/KI could be directly
estimated from time-dependent IC50 determinations by kinetic analysis with HTRF® KinEASE™,

T3 sequence (P31749 whole entry): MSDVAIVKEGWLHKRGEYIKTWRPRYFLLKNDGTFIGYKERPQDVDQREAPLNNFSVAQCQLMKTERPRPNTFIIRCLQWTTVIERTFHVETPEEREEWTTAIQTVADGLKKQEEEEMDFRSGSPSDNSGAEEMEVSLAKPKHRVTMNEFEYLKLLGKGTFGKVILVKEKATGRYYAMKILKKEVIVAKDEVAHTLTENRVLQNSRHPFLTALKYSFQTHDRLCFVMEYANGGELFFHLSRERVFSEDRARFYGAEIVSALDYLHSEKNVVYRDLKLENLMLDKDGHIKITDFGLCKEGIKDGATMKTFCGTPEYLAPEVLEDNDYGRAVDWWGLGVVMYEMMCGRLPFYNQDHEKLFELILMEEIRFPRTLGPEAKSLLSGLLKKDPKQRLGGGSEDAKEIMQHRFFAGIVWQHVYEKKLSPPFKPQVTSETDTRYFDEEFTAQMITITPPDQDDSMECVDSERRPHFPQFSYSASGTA
T1 sequence (P31749 whole entry): as above
T2 sequence (P31751 whole entry): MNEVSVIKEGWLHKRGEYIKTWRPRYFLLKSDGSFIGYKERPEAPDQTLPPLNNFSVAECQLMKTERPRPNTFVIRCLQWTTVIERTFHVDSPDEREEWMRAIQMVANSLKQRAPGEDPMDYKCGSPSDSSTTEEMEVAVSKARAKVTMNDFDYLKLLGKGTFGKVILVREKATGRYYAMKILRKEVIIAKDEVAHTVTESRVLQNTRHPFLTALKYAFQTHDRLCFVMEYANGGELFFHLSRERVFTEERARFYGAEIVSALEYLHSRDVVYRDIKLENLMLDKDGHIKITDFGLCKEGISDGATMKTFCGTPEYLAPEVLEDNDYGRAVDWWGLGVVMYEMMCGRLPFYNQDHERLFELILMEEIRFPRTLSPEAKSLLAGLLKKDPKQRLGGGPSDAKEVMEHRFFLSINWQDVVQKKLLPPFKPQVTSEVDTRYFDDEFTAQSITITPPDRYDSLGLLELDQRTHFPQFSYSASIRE
Akt3, sequence (Q9Y243 whole entry): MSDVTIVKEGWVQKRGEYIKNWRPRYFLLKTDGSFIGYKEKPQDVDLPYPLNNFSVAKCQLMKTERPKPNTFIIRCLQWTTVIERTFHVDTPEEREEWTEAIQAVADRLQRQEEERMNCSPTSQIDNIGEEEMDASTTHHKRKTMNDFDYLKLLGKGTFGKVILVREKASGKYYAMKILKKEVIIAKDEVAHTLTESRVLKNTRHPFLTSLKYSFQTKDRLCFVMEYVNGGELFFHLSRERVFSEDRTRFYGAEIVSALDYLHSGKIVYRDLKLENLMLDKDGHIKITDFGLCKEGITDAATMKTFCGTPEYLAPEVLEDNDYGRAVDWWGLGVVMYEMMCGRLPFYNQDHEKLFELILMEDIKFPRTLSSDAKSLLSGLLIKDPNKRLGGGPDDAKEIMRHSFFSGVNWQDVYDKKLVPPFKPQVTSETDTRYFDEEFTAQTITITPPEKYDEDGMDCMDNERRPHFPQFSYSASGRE

- IC50 (Akt2): > 20 µM
- IC50 (Akt1 [2]): 0.372 ± 0.0485 µM
- EC50 (T47D cells): 4.07 ± 1.61 µM
- EC50 (BT-474 cells): 8.27 ± 0.862 µM
- EC50 (MCF-7 cells): 4.29 ± 1.13 µM
- covalent binding to Akt1 (mass increase by LC-MS) (wild-type Akt1 [3]): quantitative protein labelling
- IC50 (Akt3): > 20 µM
- Ki (Akt1 [4]; inhibition constant of inactivation): 0.497 ± 0.107 µM
- k inact (Akt1 [4]): 0.071 ± 0.006 min⁻¹
- k inact/K I (Akt1 [4]): 2000 ± 1000 M⁻¹ s⁻¹
Compound: C=CC(=O)Nc1cccc(-c2cn(C3CCN(Cc4ccc(-c5nc6ccccn6c5-c5ccccc5)cc4)CC3)nn2)c1 [Compound 3, N ‐[3‐(1‐{1‐[4‐(3‐Phenylimidazo[1,2‐a]pyridin‐2‐yl)benzyl]piperidin‐4‐yl}‐1H‐1,2,3‐triazol‐4‐yl)phenyl]acrylamide]
- covalent binding to Akt1, previously identified (wild-type Akt1 [1]): covalent binder
- EC50 (AN3CA cells): 4.75 ± 1.54 µM
- EC50 (ZR-75-1 cells): 2.17 ± 0.517 µM
- EC50 (KU-19-19 cells): 12.4 ± 2.88 µM
